Consider 19 compounds from BindingDB's records for doi:10.7270/Q2736PBV (Broad Institute, 2009).

The assay addresses T1, Streptokinase A (Streptococcus pyogenes serotype M1, UniProt P10520).
T1 sequence (P10520 whole entry): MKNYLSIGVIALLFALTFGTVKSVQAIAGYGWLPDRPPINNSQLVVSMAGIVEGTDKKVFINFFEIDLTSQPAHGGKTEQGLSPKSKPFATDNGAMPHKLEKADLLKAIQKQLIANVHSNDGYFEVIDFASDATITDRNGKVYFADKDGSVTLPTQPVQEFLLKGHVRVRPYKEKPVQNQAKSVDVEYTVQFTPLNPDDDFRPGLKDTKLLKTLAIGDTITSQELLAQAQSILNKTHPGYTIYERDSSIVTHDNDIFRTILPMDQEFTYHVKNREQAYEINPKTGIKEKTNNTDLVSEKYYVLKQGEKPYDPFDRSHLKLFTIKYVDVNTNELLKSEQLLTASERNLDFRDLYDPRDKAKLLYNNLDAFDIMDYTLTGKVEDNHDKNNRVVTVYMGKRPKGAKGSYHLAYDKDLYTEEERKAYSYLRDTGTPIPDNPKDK
Briefly: S. pyogenes streptokinase expression inhibitors, potency, dose response, plasminogen activation absorbance, OD405 (AID 1914).
Broadly, the EC50 is the midpoint of the concentration-response curve. A low value points to an effect from little substance. Turning to `CC(N=Nc1nc2ccccc2[nH]1)c1ccc2c(c1)OCO2` (centres undefined) [SMR000354227], the EC50 is > 150 µM.

On to `O=C(N/N=C/C1C=C(Cl)C=C([N+](=O)[O-])C1=O)c1ccccc1NS(=O)(=O)c1cccs1` (centres undefined) [SMR000364876], for which the EC50 was > 150 µM.

For the compound `COc1ccc(NC(=S)NNC2=c3ccccc3=NC2=O)cc1` [SMR000413743], the EC50 is > 150 µM.

Turning to `O=C1C(Br)=CC([N+](=O)[O-])=C/C1=C\NNC(=O)C12CC3CCC(CC(C3)C1)C2` [SMR000414723], the EC50 is > 150 µM.

Regarding `Cc1ccc(O)c(C2CC(c3ccc(Cl)cc3)N=N2)c1` (centres undefined) [SMR000414826], the EC50 is > 150 µM.

On to `CC1CC(C)(C)N2C(=O)/C(=N\NC(N)=S)c3cccc1c32` (centres undefined) [SMR000414933], for which the concentration for a half-maximal effect (EC50) is > 150 µM.

In turn, `CC1=CC(C)(C)N2C(=O)/C(=N\N)c3c(C)c(C)cc1c32` [SMR000414935] came in with a 50% effective concentration (EC50) of 16.3 µM.

Regarding `CCCCCCC(=O)NNC=C1C(=O)NC(=S)N(C(C)CC)C1=O` (centres undefined) [SMR000439319], the concentration giving a half-maximal response (EC50) is > 150 µM.

For the compound `COc1cccc(C(=O)Oc2ccc(CN=Nc3ccc(C(=O)O)cc3)cc2OC)c1` [SMR000502791], the half-maximal effective concentration (EC50) was > 150 µM.

As to `Cc1cc(C)c2c(c1)C(=NNc1ccc(C(=O)O)cc1)C(O)=N2` [SMR000592331], the EC50 is > 150 µM.

Turning to `O=C1C(=O)N(Cc2ccco2)C(c2cccc(Cl)c2)C1C(=O)c1ccco1` (centres undefined) [SMR000665558], the EC50 was > 150 µM.

The compound `O=C(CSc1ccc(Cl)cc1)Nc1cc(=O)n(-c2ccccc2)[nH]1` [SMR000672521] returned a concentration giving a half-maximal response (EC50) of 9.33 µM.

Turning to `CNC(=O)c1c(NC(=O)c2ccc(-n3c(O)ccc3O)cc2)sc2c1CCC(C)C2` (centres undefined) [SMR000806319], the half-maximal effective concentration (EC50) was > 150 µM.

Consider `CSc1cccc(-c2nnc(NC(=O)c3cccc(-n4c(O)ccc4O)c3)o2)c1` [SMR000811880], for which the concentration giving a half-maximal response (EC50) was > 150 µM.

As to `CC(=NNC(=N)Sc1cc(O)n(-c2ccc(Br)cc2)c1O)c1cccs1` [[1-(4-bromophenyl)-2,5-bis(oxidanylidene)pyrrolidin-3-yl] N''-(1-thiophen-2-ylethylideneamino)carbamimidothioate], the response was half-maximal at 9.08 µM (EC50).

Take `CCN1C(=O)C(C=NN=Cc2ccccc2)c2ccc(C3=NNC(=O)CC3)cc21` (centres undefined) [benzaldehyde {[1-ethyl-2-oxo-6-(6-oxo-1,4,5,6-tetrahydro-3-pyridazinyl)-1,2-dihydro-3H-indol-3-ylidene]methyl}hydrazone]: the EC50 was > 150 µM.

As for `CC(C)COC(=O)c1cccc2c1-c1ccccc1C2N=O` (centres undefined) [isobutyl 9-(hydroxyimino)-9H-fluorene-4-carboxylate], the EC50 came to 50 µM.

As for `COC(=O)c1sc(N2C(=O)C(=O)C(C(=O)c3ccc(C)o3)C2c2ccc([N+](=O)[O-])cc2)nc1C` (centres undefined) [methyl 2-[4-hydroxy-3-(5-methylfuran-2-carbonyl)-2-(4-nitrophenyl)-5-oxo-2H-pyrrol-1-yl]-4-methyl-1,3-thiazole-5-carboxylate], the EC50 was > 150 µM.

Take `C[N+](C)(C)c1ccc(CN=Nc2nc(Cl)c(C#N)c(Cl)c2Cl)cc1` [trimethyl-[4-[[(3,4,6-trichloro-5-cyanopyridin-2-yl)hydrazinylidene]methyl]phenyl]azanium;iodide]: the 50% effective concentration (EC50) is > 150 µM.
